Legend:
obese rat = assay: Blood triglyceride and cholesterol in experimental obese rats; type: in vivo; conditions: 13-day treatment
[1] = Body weight and abdomen fat weight in experimental obese rats; type: in vivo, rat; conditions: for Abdomen Fat Weight: 15-day treatment

| SMILES | Cholesterol (obese rat; 4 mg/kg) | Triglyceride (obese rat; 4 mg/kg) | Cholesterol (obese rat; 30 mg/kg) | Triglyceride (obese rat; 30 mg/kg) | Body Weight ([1]; 4 mg/kg, 0 day) | Abdomen Fat Weight ([1]; 4 mg/kg) | Body Weight ([1]; 4 mg/kg, 6 days) | Body Weight ([1]; 4 mg/kg, 9 days) | Body Weight ([1]; 4 mg/kg, 15 days) | Body Weight ([1]; 30 mg/kg, 0 day) | Abdomen Fat Weight ([1]; 30 mg/kg) | Body Weight ([1]; 30 mg/kg, 6 days) | Body Weight ([1]; 30 mg/kg, 9 days) | Body Weight ([1]; 30 mg/kg, 15 days) | body weight and abdomen fat increases ([1]; after 15-day drug treatment) |
| --- | --- | --- | --- | --- | --- | --- | --- | --- | --- | --- | --- | --- | --- | --- | --- |
| O=C(c1ccc(F)cc1)c1ccccc1NC(Cc1ccc(OCCn2c3ccccc3c3ccccc32)cc1)C(=O)O (stereo not shown) [CS-038, 2-[(2-(4-fluorobenzoyl)phenyl)amino]-3-[4-(2-carbazolylethoxy)-phenyl]-propionic acid] | 98.4 ± 29.4 mg/dL | 150.3 ± 52.1 mg/dL | 86.6 ± 37.7 mg/dL | 143.2 ± 61.8 mg/dL | 591.5 ± 130.0 g | 55.8 ± 16.8 g | 580.8 ± 130.2 g | 575.2 ± 130.6 g | 569.4 ± 122.9 g | 580.5 ± 134.9 g | 56.6 ± 21.1 g | 586.1 ± 143.2 g | 586.5 ± 144.2 g | 578.3 ± 176.8 g | does not induce body weight and abdomen fat increases |
| CN(CCOc1ccc(CC2SC(=O)NC2=O)cc1)c1ccccn1 (stereo not shown) [Rosiglitazone, reference compound] | 112.7 ± 25.5 mg/dL | 273.3 ± 87.4 mg/dL | – | – | 594.9 ± 169.3 g | 63.1 ± 31.4 g | 604.5 ± 181.4 g | 601.6 ± 183.9 g | 596.4 ± 176.8 g | – | – | – | – | – | – |
